This is an account of results in publication PMC7070906, “A Near-infrared Turn-on Fluorescent Sensor for Sensitive and Specific Detection of Albumin from Urine Samples” (Sensors (Basel, Switzerland), 2020).

For orientation: Kd means the free concentration of one partner at which half of the binding sites on the other are occupied at equilibrium, for simple one-to-one binding. Higher therefore signals weaker binding.

The assay deals with T1, human serum albumin (HSA) (Homo sapiens, UniProt P02768).
T1 construct: gene ALB
T1 sequence (P02768 25-609): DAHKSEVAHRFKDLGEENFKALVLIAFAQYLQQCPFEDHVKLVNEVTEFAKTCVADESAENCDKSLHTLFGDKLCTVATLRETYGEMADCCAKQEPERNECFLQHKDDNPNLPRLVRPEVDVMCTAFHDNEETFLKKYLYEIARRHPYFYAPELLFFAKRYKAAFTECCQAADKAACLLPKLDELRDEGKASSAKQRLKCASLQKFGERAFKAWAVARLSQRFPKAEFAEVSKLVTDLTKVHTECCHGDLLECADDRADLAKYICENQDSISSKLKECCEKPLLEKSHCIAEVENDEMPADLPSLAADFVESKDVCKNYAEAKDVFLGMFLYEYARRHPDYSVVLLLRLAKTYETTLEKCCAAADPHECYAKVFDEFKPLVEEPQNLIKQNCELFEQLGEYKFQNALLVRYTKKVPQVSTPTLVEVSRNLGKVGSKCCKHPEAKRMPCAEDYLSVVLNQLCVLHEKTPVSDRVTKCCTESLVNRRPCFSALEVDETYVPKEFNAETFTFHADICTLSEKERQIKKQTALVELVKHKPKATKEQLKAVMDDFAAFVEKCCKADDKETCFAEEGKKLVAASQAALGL
Kind of assay: fluorescence turn-on titration with HSA (one-site fit), Job's plot […], displacement assay. The assay is classed as binding.

In the case of `CN(C)c1ccc(/C=C/C=C/C=C(\C#N)C(=O)c2cccc(Cl)c2)s1` [compound 5, (2E,4E,6E)-2-(3-chlorobenzoyl)-7-(5-(dimethylamino)thiophen-2-yl)hepta-2,4,6-trienenitrile], binding was characterised by a dissociation constant (Kd) of 15.4 ± 3.3 µM.
